Measurements taken from BigSolDB 2.1.

COC(=O)/C=C/C(=O)OC
Settings	solubility (mole fraction)
in ethanol, 289.95 K	0.00328
in ethanol, 294.45 K	0.00465
in ethanol, 297.55 K	0.00607
in ethanol, 303.15 K	0.00908
in ethanol, 307.3 K	0.0122
in ethanol, 311.1 K	0.0157
in ethanol, 314.75 K	0.0199
in ethanol, 318.65 K	0.0253
in ethanol, 322.55 K	0.0326
in ethanol, 327.35 K	0.0431
in ethanol, 331.85 K	0.058
in ethanol, 336.05 K	0.0751
in isopropanol, 295.8 K	0.00533
in isopropanol, 300.95 K	0.00748
in isopropanol, 304.35 K	0.0097
in isopropanol, 306.7 K	0.0117
in isopropanol, 309.85 K	0.0148
in isopropanol, 312.55 K	0.0183
in isopropanol, 316.85 K	0.025
in isopropanol, 320 K	0.0318
in isopropanol, 322.8 K	0.0396
in isopropanol, 326.25 K	0.0486
in isopropanol, 329.75 K	0.0629
in isopropanol, 332.85 K	0.0785
in isopropanol, 335.8 K	0.0997
in methanol, 297.45 K	0.00749
in methanol, 301 K	0.00948
in methanol, 305.55 K	0.0122
in methanol, 309.17 K	0.0152
in methanol, 312.85 K	0.0189
in methanol, 316.45 K	0.0231
in methanol, 319.37 K	0.0279
in methanol, 322.28 K	0.0335
in methanol, 325.93 K	0.04
in methanol, 329.15 K	0.0491
in methanol, 332.3 K	0.06
in methanol, 337.65 K	0.081
in n-propanol, 295.2 K	0.00504
in n-propanol, 299.95 K	0.00668
in n-propanol, 304.35 K	0.00906
in n-propanol, 307.85 K	0.0114
in n-propanol, 310.7 K	0.0138
in n-propanol, 313.2 K	0.0174
in n-propanol, 318.7 K	0.0253
in n-propanol, 323.65 K	0.0369
in n-propanol, 328.95 K	0.0535
in n-propanol, 332.5 K	0.0686
in n-propanol, 335.65 K	0.087
in n-propanol, 338.15 K	0.106
in n-propanol, 341.3 K	0.136
in propylene glycol, 302.75 K	0.000378
in propylene glycol, 307.05 K	0.000797
in propylene glycol, 310.55 K	0.00143
in propylene glycol, 314.25 K	0.00255
in propylene glycol, 316.75 K	0.00366
in propylene glycol, 320.05 K	0.00586
in propylene glycol, 323.25 K	0.00886
in propylene glycol, 327.95 K	0.0149
in propylene glycol, 332.15 K	0.023
in propylene glycol, 337.25 K	0.0349
in propylene glycol, 342.35 K	0.051
in propylene glycol, 347.15 K	0.073
in water, 300.55 K	9.27e-05
in water, 302.6 K	0.000116
in water, 309.85 K	0.000236
in water, 315.45 K	0.000365
in water, 322.4 K	0.000575
in water, 328.05 K	0.000781
in water, 333.25 K	0.000989
in water, 337.05 K	0.00113
in water, 340.65 K	0.00132
in water, 344.45 K	0.00148
